Measurements published in patent publication US9162991B2 (University of Ottawa, priority 2007, dated 2015).
“Also recorded” adds a separate entry of the source. Like-named read-outs stand apart in the source and are kept apart here.

Tests used:
[1] = target: recombinant guinea pig liver TGase (Cavia cutleri (Guinea pig), UniProt P08587); assay: biochemical; assay type: biochemical
Experimental: ENZYME INHIBITION BY COMPOUNDS 14a-c, 14l, 15a, 15d-k, 15m-q, 30a, 30r, 30t, 37a and 38a: For enzymology studies of these compounds, recombinant guinea pig liver TGase was expressed in Escherichia coli and effectively purified (Gillet, S. M. F. G. et al J. N., Prot. Exp. & Purif. 2004, 33, 256).
The mode of inhibition was determined for the representative lead compound 14a through non-linear regression of initial rate data to the Michaelis-Menten equation (FIG. 1).
For the ensuing enzymatic tests, recombinant guinea pig liver TGase was expressed in E. Coli and effectively purified.
Kinetic runs were recorded on a Cary 100 BIO UV-Visible spectrophotometer at 405 nm and 25° C., in a buffer composed of 50 mM CaCl2, 50 μM EDTA and 0.1 M MOPS (pH 7.0). All aqueous solutions were prepared using de-ionized water purified from the Millipore BioCell system. […] Factor XIIIa activity was measured using a coupled-enzyme assay (Day, N.; Keillor, J. W. Anal. Biochem. 1999, 274, 141). Factor XIIIa, was added to a final concentration of 0.89 μg/mL to a pH 8.5 solution (0.1 M Tris-HCl, 5 mM CaCl2 and 10 mM DDT) of 0.5 mM β-NADH, 3.3 mM Na-acetyl-L-lysine methyl ester, 10 mM α-ketoglutaric acid sodium salt and 297 μg/mL glutamate dehydrogenase (GDH).

human caspase 3 = human caspase 3 (Homo sapiens (Human), UniProt P42574); assay: Caspase 3 activity, release of p-nitroaniline from Ac-Asp-Glu-Val-Asp-pNA; assay type: biochemical
human caspase 3, sequence (P42574 29-175): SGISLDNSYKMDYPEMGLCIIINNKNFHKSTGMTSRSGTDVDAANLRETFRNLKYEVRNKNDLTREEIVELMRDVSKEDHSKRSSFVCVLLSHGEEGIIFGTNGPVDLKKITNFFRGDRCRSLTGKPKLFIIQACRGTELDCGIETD
human caspase 3, sequence (P42574 176-277): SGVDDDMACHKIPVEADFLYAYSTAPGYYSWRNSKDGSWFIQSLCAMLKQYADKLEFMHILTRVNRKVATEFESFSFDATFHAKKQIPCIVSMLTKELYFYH
Excerpt: To examine the enzyme selectivity of this new family of TG2 inhibitors, several representative compounds (14a, 15p, 18a, 28a and 30a) were further tested as inhibitors of related enzymes. For these studies, Factor XIIIa was chosen because it is a member of the family of transglutaminase enzymes and its inhibition in vivo may lead to compromised coagulation and toxicity. Caspase 3 was also chosen because as a cysteine protease, its acyl transfer mechanism is phenomenologically similar to that of TGase. At concentrations approaching the limits of their solubility, most of those compounds had no discernable effect on the activities of either of these enzymes (data not shown). […] This selectivity bodes well for in vivo application.
The subsequent absorbance decrease was followed at 340 nm at 37° C. Caspase 3 activity was measured by monitoring the release of p-nitroaniline (pNA) (λabs=405 nm) from the peptidic substrate Ac-Asp-Glu-Val-Asp-pNA (20 μM) catalyzed by human caspase 3 (Sigma, 250 ng/mL) at pH 7.4 (18.6 mM HEPES, 1.9 mM EDTA, 0.09% CHAPS and 4.7 mM DTT).

[2] = tested on: tissue transglutaminase (TG2); assay: Cytochrome c (cytC) promoter/luciferase reporter assay in CHO cells; assay type: cell-based, Chinese Hamster; settings: 100 μM, CHO cells incubated 12 hours, luminescence of cell lysate
Excerpt: IN VITRO STUDIES FOR COMPOUND 15a: A cytochrome c (cytC) promoter/luciferase reporter assay (illustrated in FIG. 6) was used to assess tissue transglutaminase (TG2) activity for compound 15a. In the absence of TG2, transcription factors bind to the cytC promoter region of the luciferase gene, and the level of expressed luciferase is detected from the luminescence of the Chinese Hamster Ovary (CHO) cell lysate (A). The level of effective cytC promoter is sensitive to endogenous TG2 co-expressed in CHO cells. High TG2 expression results in low promoter activity, presumably because the transcription factors that bind to the cytC promoter have Gln-rich sequences that are modified by TG2-mediated hydrolysis or transamidation (B). In the presence of TG2 inhibitors, TG2-induced silencing of the promoter is repressed and luciferase is detected in the lysate once more (C). In this assay, CHO cells are incubated in the presence of the inhibitor compound for 12 hours, after which the luminescence of cell lysate is measured, as an indication of the level of TG2 inhibition.

[3] = Table 3, influence of the acylated moiety, read-out: IC50 (μM), class symbol
[4] = Table 3, value in brackets, read-out: IC50
[5] = Table 2, influence of the cinnamoyl double bond, read-out: IC50 (μM), class symbol
[6] = Table 2, value in brackets or words, read-out: IC50
[7] = Table 1, substituent on the cinnamoyl aromatic group, read-out: IC50 (μM), class symbol
[8] = Table 1, value in brackets, read-out: IC50

recombinant guinea pig liver TGase, sequence (P08587 whole entry): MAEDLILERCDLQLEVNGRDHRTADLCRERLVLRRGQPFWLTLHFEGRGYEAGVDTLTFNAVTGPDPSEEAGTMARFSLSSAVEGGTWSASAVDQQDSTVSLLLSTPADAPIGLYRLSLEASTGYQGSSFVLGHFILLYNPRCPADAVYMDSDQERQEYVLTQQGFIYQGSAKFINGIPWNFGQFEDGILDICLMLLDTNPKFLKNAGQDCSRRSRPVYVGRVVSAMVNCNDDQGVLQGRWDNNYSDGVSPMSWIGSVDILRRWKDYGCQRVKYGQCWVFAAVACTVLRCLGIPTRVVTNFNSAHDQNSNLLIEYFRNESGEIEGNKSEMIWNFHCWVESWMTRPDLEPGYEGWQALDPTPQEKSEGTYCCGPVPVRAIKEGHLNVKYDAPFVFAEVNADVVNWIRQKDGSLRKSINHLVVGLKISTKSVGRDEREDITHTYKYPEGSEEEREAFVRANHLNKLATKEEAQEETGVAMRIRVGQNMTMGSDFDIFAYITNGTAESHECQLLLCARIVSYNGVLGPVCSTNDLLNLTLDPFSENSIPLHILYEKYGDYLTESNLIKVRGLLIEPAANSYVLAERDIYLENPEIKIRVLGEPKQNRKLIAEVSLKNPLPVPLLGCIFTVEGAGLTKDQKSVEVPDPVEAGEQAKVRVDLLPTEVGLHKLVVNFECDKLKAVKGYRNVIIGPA

With `O=C(/C=C/c1ccc([N+](=O)[O-])cc1)c1cc2ccccc2oc1=O` [Compound 28a, 3-((E)-3-(4-Nitrophenyl)acryloyl)-2H-chromen-2-one] the IC50 [1, 3] was 20 to 50 µM, the IC50 [1, 4] was 48 µM and the IC50 ([1]; read-out: IC50) was 48 µM. The inhibition at 6 µM (human caspase 3; at 6 μM) was 28% and the “effect on caspase 3 activity” value (human caspase 3; at concentrations approaching the limits of solubility) was “slight inhibitory activity”.

In the case of `O=C(CCc1ccc([N+](=O)[O-])cc1)n1nnc2ccccc21` [Compound 33a, p-Nitrohydrocinnamoyl benzotriazolylamide], the “TGase inhibitory activity (in words)” value [1] is reported as “significant loss of activity”, the IC50 [1, 5] is reported as over 50 µM and the IC50 [1, 6] is reported as over 200 µM.

In the case of `COc1ccc(/C=C/C(=O)n2nnc3ccccc32)cc1` [Compound 15d, p-Methoxycinnamoyl benzotriazolyl amide], the IC50 [1, 7] is reported as over 50 µM and the IC50 [1, 8] is reported as over 100 µM.

For `CCCCCCCCn1cc(C(=O)/C=C/c2ccc([N+](=O)[O-])cc2)nn1` [Compound 4b, (E)-3-(4-nitrophenyl)-1-(1-octyl-1H-1,2,3-triazol-4-yl)prop-2-en-1-one], the IC50 [1] was 20 to 50 µM and the IC50 ([1]; read-out: IC50) was 28.5 µM.

With `O=C(/C=C/c1ccc([N+](=O)[O-])cc1)c1cn(Cc2ccccc2[N+](=O)[O-])nn1` [Compound 4h, (E)-1-(1-(2-nitrobenzyl)-1H-1,2,3-triazol-4-yl)-3-(4-nitrophenyl)prop-2-en-1-one] the “reduction in potency (fold)” value [1] was 4-7 fold, the IC50 ([1]; IC50 (μM), Table 6, value in brackets) was 10.7 µM and the IC50 ([1]; IC50 (μM), class symbol, Table 6, Huisgen [3+2] cycloaddition products) was under 20 µM.

`O=C(/C=C/c1ccc(Cl)cc1)n1nnc2ccccc21` [Compound 15k, p-Chlorocinnamoyl benzotriazolyl amide] showed an IC50 [1, 7] of over 50 µM and an IC50 [1, 8] of over 100 µM.

With `O=C(/C=C/C=C/c1ccc([N+](=O)[O-])cc1)n1nnc2ccccc21` [Compound 37a, (2E,4E)-5-(4-Nitrophenyl)penta-2-4-dienoyl benzotriazolyl amide] the “TGase inhibitory activity (in words)” value [1] was “Neither of these two extended conjugated compounds showed significant inhibition”, the IC50 [1, 5] was over 50 µM and the IC50 [1, 6] was over 200 µM.

`O=C(/C=C/c1ccc([N+](=O)[O-])cc1)c1cn(C2CCCC2)nn1` [Compound 4c, (E)-1-(1-cyclopentyl-1H-1,2,3-triazol-4-yl)-3-(4-nitrophenyl)prop-2-en-1-one] was tested, and the IC50 [1] was over 50 µM, the “TGase inhibitory activity (in words)” value [1] was “relatively poor activity” and the IC50 ([1]; read-out: IC50) was over 100 µM.

`O=C(/C=C/c1ccc([N+](=O)[O-])cc1)OCc1ccccc1` [Compound 19a, p-Nitrocinnamoyl benzyl ester] was tested, and the “TGase inhibitory activity (in words)” value [1] was “little inhibitory activity” and the IC50 [1, 3] was over 50 µM.

In the case of `O=C(/C=C/c1ccc([N+](=O)[O-])cc1)n1nnc2ccccc21` [Compound 15a, p-Nitrocinnamoyl benzotriazolyl amide], the “TGase inhibitory activity (in words)” value [1] is reported as “Inhibitory activity was observed”, the IC50 [1, 7] is reported as over 50 µM and the IC50 [1, 8] is reported as 74 µM. For the same compound, the IC50 [1, 5] was over 50 µM, the IC50 [1, 6] was 74 µM and the IC50 [1, 3] was over 50 µM. For the same compound, the “inhibition of TG2-mediated silencing of cytC promoter” value [2] was “complete inhibition”.

Work on `CC(C)(C)OC(=O)Nc1cccc(C=CC(=O)n2nnc3ccccc32)c1` [Compound 15o, m-(tert-Butoxycarbonylamino)cinnamoyl benzotriazolyl amide] yielded an IC50 [1, 7] of 20 to 50 µM and an IC50 [1, 8] of 39 µM.

With `O=C(C=Cc1ccc([N+](=O)[O-])cc1)N(Cc1ccccc1)Cc1ccccc1` [Compound 26a, p-Nitrocinnamoyl dibenzyl amide] the IC50 [1, 3] was 20 to 50 µM, the IC50 [1, 4] was 57 µM and the IC50 ([1]; read-out: IC50) was 57 µM.

Work on `O=C(C=Cc1cccc(Cl)c1)On1nnc2ccccc21` [Compound 14l, m-Chlorocinnamoyl oxybenzotriazolyl amide] yielded an IC50 [1, 7] of 20 to 50 µM, an IC50 [1, 8] of 41 µM and an IC50 ([1]; read-out: IC50) of 41 µM.

Compound `Cc1cccc(/C=C/C(=O)n2nnc3ccccc32)c1` [Compound 15h, m-Methylcinnamoyl benzotriazolyl amide] has an IC50 [1, 7] of over 50 µM and an IC50 [1, 8] of over 100 µM.

`O=C(/C=C/c1ccc([N+](=O)[O-])cc1)N1CCCOC1` [Compound 29a, (E)-3-(4-Nitrophenyl)-1-(1,3-oxazinan-3-yl)prop-2-en-1-one] was tested, and the “TGase inhibitory activity (in words)” value [1] was “little inhibitory potency”, the IC50 [1, 3] was over 50 µM and the IC50 [1, 4] was over 200 µM.

`Cc1ccccc1/C=C/C(=O)n1nnc2ccccc21` [Compound 15i, o-Methylcinnamoyl benzotriazolyl amide] was tested, and the IC50 [1, 7] was over 50 µM and the IC50 [1, 8] was over 100 µM.

`O=C(/C=C/c1ccc([N+](=O)[O-])cc1)Nc1cccc2ccccc12` [Compound 23a, p-Nitrocinnamoyl naphtalenyl amide] was tested, and the IC50 [1, 3] was over 50 µM and the IC50 [1, 4] was over 200 µM.

In the case of `CC(c1ccccc1)n1cc(C(=O)/C=C/c2ccc([N+](=O)[O-])cc2)nn1` (stereo not drawn) [Compound 4k, (E)-3-(4-nitrophenyl)-1-(1-(1-phenylethyl)-1H-1,2,3-triazol-4-yl)prop-2-en-1-one], the IC50 [1] is reported as under 20 µM, the “loss in potency (fold)” value [1] is reported as 4 fold and the IC50 ([1]; read-out: IC50) is reported as 17 µM.

For `CC(=O)Nc1ccc(/C=C/C(=O)c2cccnc2)cc1` [Compound 30t, (E)-3-(4-acetylaminophenyl)-1-(pyridin-3-yl)prop-2-en-1-one], the “TGase inhibitory activity (in words)” value [1] was “as effective as the benzotriazolyl amide inhibitors”, the IC50 [1, 7] was 20 to 50 µM and the IC50 [1, 8] was 28 µM.

In the case of `Nc1ccc(/C=C/C(=O)c2cccnc2)cc1` [Compound 30r, (E)-3-(4-aminophenyl)-1-(pyridin-3-yl)prop-2-en-1-one], the “TGase inhibitory activity (in words)” value [1] is reported as “as effective as the benzotriazolyl amide inhibitors”, the IC50 [1, 7] is reported as over 50 µM and the IC50 [1, 8] is reported as 148 µM. The “loss of potency (fold)” value ([1]; relative to p-nitro azachalcone 30a) was 5 fold.

`O=C(OCc1ccc([N+](=O)[O-])cc1)n1nnc2ccccc21` [Compound 32a, p-Nitrobenzyloxycarbonylbenzotriazole] was tested, and the “TGase inhibitory activity (in words)” value [1] was “significant loss of activity”, the IC50 [1, 5] was over 50 µM and the IC50 [1, 6] was over 200 µM.

For `CC(C)(C)OC(=O)Nc1ccc(C=CC(=O)n2nnc3ccccc32)cc1` [Compound 15n, p-(tert-Butoxycarbonylamino)cinnamoyl benzotriazolyl amide], the IC50 [1, 7] was under 20 µM and the IC50 [1, 8] was 18 µM.

Work on `O=C(/C=C/c1ccccc1Cl)n1nnc2ccccc21` [Compound 15m, o-Chlorocinnamoyl benzotriazolyl amide] yielded an IC50 [1, 7] of over 50 µM and an IC50 [1, 8] of over 100 µM.

With `O=C(/C=C/c1ccc([N+](=O)[O-])cc1)c1cn(Cc2cnn[nH]2)nn1` [Compound 4m, (E)-1-(1-((3H-1,2,3-triazol-4-yl)methyl)-1H-1,2,3-triazol-4-yl)-3-(4-nitrophenyl)prop-2-en-1-one] the IC50 [1] was 20 to 50 µM, the “TGase inhibitory activity (in words)” value [1] was “relatively higher IC50 value; also recorded: high IC50” and the IC50 ([1]; read-out: IC50) was 33 µM.
